Source: patent publication US20260042764A1, “COMPOSITIONS AND METHODS FOR INHIBITION OF KRAS” (TheRas, Inc., priority 2022, published 2026)

Columns and labels:
GP2d cells (KRAS G12D) = test: Cell-based pERK HTRF assay in GP2d cell (Biological Example 2); settings: GP2d (KRAS G12D) cells, pERK HTRF
Summary of the method: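 Cells grown in DMEM with 10% FBS were exposed to compound for 60 min at 0.25% DMSO, using a 9-point half-log series starting at 1 μM or 100 nM. Lysates were then mixed with d2 and Eu cryptate antibodies for 4–24 h at room temperature, and pERK was read by HTRF.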

[1] = molecular target: T1, Avi-KRAS G12V (1-169) GppNHp/RAF1 RBD-3xFLAG (52-151) (Homo sapiens, UniProt P01116, G12V); test: Raf1-KRAS G12V-GppNHP disruption HTRF assay (Biological Example 1); assay type: binding; settings: KRAS G12V, GppNHp-loaded; Table 11
T1 construct: Avi-KRAS G12V (1-169)
T1 sequence (P01116 1-169 isoform P01116-2 G12V): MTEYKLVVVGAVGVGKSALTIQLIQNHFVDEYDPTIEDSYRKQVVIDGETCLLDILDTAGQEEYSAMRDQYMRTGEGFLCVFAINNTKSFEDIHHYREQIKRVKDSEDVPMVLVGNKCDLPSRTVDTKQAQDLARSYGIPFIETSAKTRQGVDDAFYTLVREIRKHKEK
Summary of the method: (§1)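 Using HTRF, the loss of KRAS–effector RAF1 complex was quantified in 50 mM Tris pH 7.5 buffer with 100 mM NaCl and 0.1% BSA. The protein step and reagent step ran 1 h each at room temperature. Activity normalized with DMSO taken as 100%.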

[2] = molecular target: T2, Avi-KRAS WT (1-169) GppNHp/RAF1 RBD-3xFLAG (52-151) (Homo sapiens, UniProt P01116); test: Raf1-KRAS WT-GppNHP disruption HTRF assay (Biological Example 1); assay type: binding; settings: KRAS WT, GppNHp-loaded; Table 11
T2 construct: Avi-KRAS WT (1-169)
T2 sequence (P01116 1-169 isoform P01116-2): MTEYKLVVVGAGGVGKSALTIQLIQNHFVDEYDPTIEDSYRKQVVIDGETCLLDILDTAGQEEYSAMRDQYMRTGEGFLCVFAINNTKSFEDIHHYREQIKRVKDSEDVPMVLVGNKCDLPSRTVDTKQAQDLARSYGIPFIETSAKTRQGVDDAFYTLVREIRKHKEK
Summary of the method: as §1

[3] = molecular target: T3, Avi-KRAS G12R (1-169) GppNHp/RAF1 RBD-3xFLAG (52-151) (Homo sapiens, UniProt P01116, G12R); test: Raf1-KRAS G12R-GppNHP disruption HTRF assay (Biological Example 1); assay type: binding; settings: KRAS G12R, GppNHp-loaded; Table 11
T3 construct: Avi-KRAS G12R (1-169)
T3 sequence (P01116 1-169 isoform P01116-2 G12R): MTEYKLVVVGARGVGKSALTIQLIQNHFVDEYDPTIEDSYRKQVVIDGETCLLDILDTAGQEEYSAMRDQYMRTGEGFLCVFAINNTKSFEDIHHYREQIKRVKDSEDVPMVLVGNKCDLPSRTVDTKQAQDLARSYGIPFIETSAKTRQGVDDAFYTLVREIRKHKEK
Summary of the method: as §1

[4] = molecular target: T4, Avi-KRAS G12D (1-169) GppNHp/RAF1 RBD-3xFLAG (52-151) (Homo sapiens, UniProt P01116, G12D); test: Raf1-KRAS G12D-GppNHP disruption HTRF assay (Biological Example 1); assay type: binding; settings: KRAS G12D, GppNHp-loaded; Table 11
T4 construct: Avi-KRAS G12D (1-169)
T4 sequence (P01116 1-169 isoform P01116-2 G12D): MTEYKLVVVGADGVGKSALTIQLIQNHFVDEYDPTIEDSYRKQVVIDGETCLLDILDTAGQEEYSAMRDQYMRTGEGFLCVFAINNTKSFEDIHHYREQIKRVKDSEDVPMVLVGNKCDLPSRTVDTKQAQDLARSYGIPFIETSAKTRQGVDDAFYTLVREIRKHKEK
Summary of the method: as §1

Row | SMILES | IC50 (GP2d cells (KRAS G12D); GP2d) [nM] | IC50 [1] [nM] | IC50 [2] [nM] | IC50 [3] [nM] | IC50 [4] [nM] | IC50 (GP2d cells (KRAS G12D)) [nM]
1 | C[C@H]1CN(c2nc(OC[C@@]34CCCN3C[C@H](F)C4)nc3c(F)c(-c4ccc(F)c5sc(N)c(C#N)c45)c(C(F)(F)F)cc23)CCO1 [Compound 142] | < 100 | 1000 to 10000 | 100 to 1000 | 100 to 1000 | 100 to 1000 | –
2 | C[C@@H]1CN(c2nc(OC[C@@]34CCCN3C[C@H](F)C4)nc3c(F)c(-c4ccc(F)c5sc(N)c(C#N)c45)c(C(F)(F)F)cc23)CCO1 [Compound 141] | < 100 | 1000 to 10000 | 100 to 1000 | 100 to 1000 | 100 to 1000 | –
3 | N#Cc1c(N)sc2c(F)ccc(-c3c(C(F)(F)F)cc4c(N5CC6CCC(C5)O6)nc(OC[C@@]56CCCN5C[C@H](F)C6)nc4c3F)c12 [Compound 130] | < 100 | 1000 to 10000 | 100 to 1000 | 100 to 1000 | 100 to 1000 | –
4 | CN(CCO)c1nc(OC[C@@]23CCCN2C[C@H](F)C3)nc2c(F)c(-c3ccc(F)c4sc(N)nc34)c(C(F)(F)F)cc12 [Compound 82] | 100 to 1000 | 1000 to 10000 | 1000 to 10000 | 1000 to 10000 | 100 to 1000 | –
5 | N#Cc1c(N)sc2c(F)ccc(-c3c(C(F)(F)F)cc4c(N5CCC(O)CC5)nc(OC[C@@]56CCCN5C[C@H](F)C6)nc4c3F)c12 [Compound 127] | < 100 | 100 to 1000 | 100 to 1000 | 100 to 1000 | 100 to 1000 | –
6 | CCC(=O)N1C[C@H](C)N(c2nc(OC[C@@]34CCCN3C[C@H](F)C4)nc3c(F)c(-c4ccc(F)c5sc(N)c(C#N)c45)c(C(F)(F)F)cc23)C[C@H]1C (atropisomer, axis not shown) [Compound 99] | < 100 | > 10000 | 1000 to 10000 | 1000 to 10000 | 1000 to 10000 | –
7 | C[C@@H]1CN(c2nc(OC[C@@]34CCCN3C[C@H](F)C4)nc3c(F)c(-c4ccc(F)c5sc(N)c(C#N)c45)c(C(F)(F)F)cc23)C[C@H](C)O1 [Compound 143] | 100 to 1000 | 1000 to 10000 | 100 to 1000 | 1000 to 10000 | 100 to 1000 | –
8 | CN(c1nc(OCC23CCCN2CCC3)nc2c(F)c(-c3ccc(F)c4sc(N)c(C#N)c34)c(C(F)(F)F)cc12)[C@H]1C[C@@H](O)C1 [Compound 25] | < 100 | < 100 | < 100 | < 100 | < 100 | –
9 | N#Cc1c(N)sc2c(F)ccc(-c3c(C(F)(F)F)cc4c(N5CCN(C(=O)CO)CC5)nc(OC[C@@]56CCCN5C[C@H](F)C6)nc4c3F)c12 [Compound 101] | < 100 | 1000 to 10000 | 100 to 1000 | 100 to 1000 | 100 to 1000 | –
10 | CC(=O)N1CCN(c2nc(OC[C@@]34CCCN3C[C@H](F)C4)nc3c(F)c(-c4ccc(F)c5sc(N)c(C#N)c45)c(C(F)(F)F)cc23)C[C@H]1CC#N [Compound 184] | 100 to 1000 | > 10000 | > 10000 | > 10000 | 1000 to 10000 | –
11 | N#Cc1c(N)sc2c(F)ccc(-c3c(C(F)(F)F)cc4c(N5CC6CCC(C5)C6O)nc(OC[C@@]56CCCN5C[C@H](F)C6)nc4c3F)c12 (some centres unmarked) [Compound 128] | < 100 | 1000 to 10000 | 100 to 1000 | 100 to 1000 | 100 to 1000 | –
12 | CC(=O)N1CC[C@H](N(C)c2nc(OC[C@@]34CCCN3C[C@H](F)C4)nc3c(F)c(-c4ccc(F)c5sc(N)c(C#N)c45)c(C(F)(F)F)cc23)[C@H]1C [Compound 191] | < 100 | 100 to 1000 | 100 to 1000 | 100 to 1000 | 100 to 1000 | –
13 | CCN(CCO)c1nc(OC[C@@H]2CCCN2C)nc2c(F)c(-c3ccc(F)c4sc(N)c(C#N)c34)c(C(F)(F)F)cc12 [Compound 179] | < 100 | 100 to 1000 | 100 to 1000 | 100 to 1000 | 100 to 1000 | –
14 | CN(c1nc(OC[C@@]23CCCN2C[C@H](F)C3)nc2c(F)c(-c3ccc(F)c4scc(C#N)c34)c(C(F)(F)F)cc12)[C@@H]1CCN(C(=O)CC#N)C1 [Compound 106] | > 1000 | > 10000 | > 10000 | > 10000 | > 10000 | –
15 | C[C@@H]1CN(c2nc(OC[C@@]34CCCN3C[C@H](F)C4)nc3c(F)c(-c4ccc(F)c5sc(N)c(C#N)c45)c(C(F)(F)F)cc23)[C@@H](C)CO1 [Compound 140] | < 100 | 1000 to 10000 | 1000 to 10000 | 1000 to 10000 | 100 to 1000 | –
16 | CN(c1nc(OC[C@@]23CCCN2C[C@H](F)C3)nc2c(F)c(-c3ccc(F)c4sc(N)c(C#N)c34)c(C#N)cc12)[C@H]1C[C@@H](O)C1 [Compound 32, 7-(2-amino-3-cyano-7-fluoro-benzothiophen-4-yl)-8-fluoro-2-[[(2R,8S)-2-fluoro-1,2,3,5,6,7-hexahydropyrrolizin-8-yl]methoxy]-4-[(3-hydroxycyclobutyl)-methyl-amino]quinazoline-6-carbonitrile] | 100 to 1000 | 1000 to 10000 | 100 to 1000 | 100 to 1000 | 100 to 1000 | –
17 | N#Cc1c(N)sc2c(F)ccc(-c3c(C(F)(F)F)cc4c(N5CCN(CCO)C(=O)C5)nc(OC[C@@]56CCCN5C[C@H](F)C6)nc4c3F)c12 [Compound 121] | 100 to 1000 | 100 to 1000 | 100 to 1000 | 100 to 1000 | 100 to 1000 | –
18 | N#Cc1c(N)sc2c(F)ccc(-c3c(C(F)(F)F)cc4c(N5CC[C@H]5CO)nc(OC[C@@]56CCCN5C[C@H](F)C6)nc4c3F)c12 [Compound 169] | < 100 | 100 to 1000 | 100 to 1000 | 100 to 1000 | 100 to 1000 | –

Continued, values first:

Row | IC50 (GP2d cells (KRAS G12D); GP2d) [nM] | IC50 [1] [nM] | IC50 [2] [nM] | IC50 [3] [nM] | IC50 [4] [nM] | IC50 (GP2d cells (KRAS G12D)) [nM] | SMILES
19 | < 100 | 100 to 1000 | 100 to 1000 | 100 to 1000 | 100 to 1000 | – | CN(CC1(CO)CC1)c1nc(OC[C@@]23CCCN2C[C@H](F)C3)nc2c(F)c(-c3ccc(F)c4sc(N)c(C#N)c34)c(C(F)(F)F)cc12 [Compound 83]
20 | < 100 | 100 to 1000 | 100 to 1000 | 100 to 1000 | 100 to 1000 | – | CN(c1nc(OC[C@@]23CCCN2C[C@H](F)C3)nc2c(F)c(-c3ccc(F)c4sc(N)c(C#N)c34)c(C(F)(F)F)cc12)C1CCC(O)CC1 (some centres unmarked) [Compound 65]
21 | – | > 10000 | > 10000 | > 10000 | > 10000 | > 1000 | CCN(C)c1nc(OC[C@@]23CCCN2C[C@H](F)C3)nc2c(F)c(-c3ccc(F)c4sc(N)c(C#N)c34)c(C(F)(F)F)cc12 (single isomer, unassigned) [Compound 197]
22 | < 100 | 100 to 1000 | 100 to 1000 | 100 to 1000 | 100 to 1000 | – | CCN(CCC#N)c1nc(OC[C@@]23CCCN2C[C@H](F)C3)nc2c(F)c(-c3ccc(F)c4sc(N)c(C#N)c34)c(C(F)(F)F)cc12 [Compound 166]
23 | < 100 | 100 to 1000 | < 100 | 100 to 1000 | < 100 | – | CN(c1nc(OC[C@@]23CCCN2C[C@H](F)C3)nc2c(F)c(-c3ccc(F)c4sc(N)c(C#N)c34)c(C(F)(F)F)cc12)[C@@H]1C[C@H](O)[C@H]1CO [Compound 181]
24 | < 100 | 100 to 1000 | 100 to 1000 | 100 to 1000 | 100 to 1000 | – | CN(CCCO)c1nc(OC[C@@]23CCCN2C[C@H](F)C3)nc2c(F)c(-c3ccc(F)c4sc(N)c(C#N)c34)c(C(F)(F)F)cc12 [Compound 73]
25 | < 100 | 100 to 1000 | 100 to 1000 | 100 to 1000 | 100 to 1000 | – | CCC(=O)N1CC[C@@H](N(C)c2nc(OC[C@@]34CCCN3C[C@H](F)C4)nc3c(F)c(-c4ccc(F)c5sc(N)c(C#N)c45)c(C(F)(F)F)cc23)C1 [Compound 113]
26 | > 1000 | > 10000 | > 10000 | > 10000 | > 10000 | – | CN(c1nc(OC[C@@]23CCCN2C[C@H](F)C3)nc2c(F)c(-c3ccc(F)c4sc(N)c(C#N)c34)c(C(F)(F)F)cc12)[C@@H]1CCC[C@H]1CO [Compound 87]
27 | < 100 | 100 to 1000 | 100 to 1000 | 100 to 1000 | < 100 | – | CCN(CC)c1nc(OC[C@@]23CCCN2C[C@H](F)C3)nc2c(F)c(-c3ccc(F)c4sc(N)c(C#N)c34)c(C(F)(F)F)cc12 [Compound 152]
28 | < 100 | 100 to 1000 | 100 to 1000 | 100 to 1000 | < 100 | – | CN(C[C@@H](O)CO)c1nc(OC[C@@]23CCCN2C[C@H](F)C3)nc2c(F)c(-c3ccc(F)c4sc(N)c(C#N)c34)c(C(F)(F)F)cc12 [Compound 78]
